Data as given in patent US5760092A, “Allocolchinones and uses thereof” (Brandeis University, priority 1996, dated 1998).
Values joined by “and” are separate entries in the source; they are usually repeats but may differ in a detail not shown here. Equal entries are not always repeated. Where two headings read alike, the source gives them in different places.

Assays:
A498 renal cancer cells = conditions: log10 conc -6.0; 1 µM

## COc1cc2c(c(OC)c1OC)-c1ccc(C(C)=O)cc1C(NC(C)=O)CC2 (stereo not shown)
A498 renal cancer cells
  Percent Growth: 25%
SF-268 CNS cancer cells; log10 conc -4.0, 100 µM
  Percent Growth: 32%
SF-268 CNS cancer cells; log10 conc -5.0
  Percent Growth: 37%
SF-268 CNS cancer cells; log10 conc -6.0, 1 µM
  Percent Growth: 36% and 38%
SF-268 CNS cancer cells; log10 conc -7.0, 0.1 µM
  Percent Growth: 35% and 45%
SF-268 CNS cancer cells; log10 conc -9.0, 0.001 µM
  Percent Growth: 40%
SF-268 CNS cancer cells; log10 conc -10.0, 0.0001 µM
  Percent Growth: 92%
